Test results reported in US7223766B2, “Bi-cyclic pyrimidine inhibitors of TGFβ” (Scios, Inc., priority 2003, dated 2007).

Target: T1, TGF R1 kinase (Homo sapiens, UniProt P36897)
T1 sequence (P36897 34-503): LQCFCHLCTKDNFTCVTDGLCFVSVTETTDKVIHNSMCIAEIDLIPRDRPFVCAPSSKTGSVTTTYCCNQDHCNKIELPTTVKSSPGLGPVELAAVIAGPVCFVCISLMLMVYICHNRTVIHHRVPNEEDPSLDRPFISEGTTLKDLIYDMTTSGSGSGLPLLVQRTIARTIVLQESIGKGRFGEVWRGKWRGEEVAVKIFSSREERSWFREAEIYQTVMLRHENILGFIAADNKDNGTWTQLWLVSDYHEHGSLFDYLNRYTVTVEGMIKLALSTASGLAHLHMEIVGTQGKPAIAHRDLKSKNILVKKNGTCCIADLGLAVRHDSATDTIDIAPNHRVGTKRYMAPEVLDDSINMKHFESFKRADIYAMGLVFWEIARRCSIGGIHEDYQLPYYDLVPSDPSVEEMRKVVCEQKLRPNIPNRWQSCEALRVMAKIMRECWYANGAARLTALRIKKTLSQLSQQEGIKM
Experiment: TGF-β inhibition assay: phosphorylation of the substrate casein by TGF R1 kinase
Assay type: biochemical
Conditions: table names no assay; casein assay of Example 2: 2.5 μM ATP, 100 μM casein, 6.4 nM TGF R1 kinase
Experimental: Invention compounds were tested for their abilities to inhibit the phosphorylation of the substrate casein. The assay was conducted as follows: Compound dilutions and reagents were prepared fresh daily. Compounds were diluted from DMSO stock solutions to 2 times the desired assay concentration, keeping final DMSO concentration in the assay less than or equal to 1%. TGF RI kinase was diluted to 4 times the desired assay concentration in buffer and DTT. ATP and casein were diluted into 4× reaction buffer, and gamma-^32P-ATP was added at 50 μCi/mL.
The assay was performed by adding 10 μl of the enzyme to 20 μl of the compound solution. The reaction was initiated by the addition of 10 μl of the casein/ATP mix. Final assay conditions included 2.5 μM ATP, 100 μM casein, 6.4 nM TGF R1 kinase, and […] in 20 mM Tris buffer, pH 7.5. The reactions were incubated at room temperature for 45 minutes. The reactions were then stopped by transferring 23 μl of reaction mixture onto a phosphocellulose 96-well filter plate, which had been pre-wetted with 15 μl of 0.25M H3PO4 per well. After 5 minutes, the wells were washed 4× with 75 mM H3PO4 and once with 95% ethanol. The plate was dried, scintillation cocktail was added to each well, and the wells were counted in a Packard TopCount microplate scintillation counter. The ability of a compound to inhibit the enzyme was determined by comparing the counts obtained in the presence of the compound to those of the positive control (in the absence of compound) and the negative control (in the absence of enzyme).
In both of the assays referenced above, IC50 values can be determined with curve-fitting plots available with common software packages. Approximate IC50 values can be calculated using formula: IC50 (app)=A×i/(1−A) where A=fractional activity and i=total inhibitor concentration.

Compound | IC50
c1ccc(-c2nc(Nc3ccncc3)c3cc[nH]c3n2)cc1 [Compound 2, 4-(4-aminopyridyl)-2-phenyl pyrollo[2,3d]pyrimidine] | 9.4 µM
Cc1noc2nc(-c3cccc(Cl)c3)nc(Nc3ccncc3)c12 [Compound 3] | 0.78 µM
Cc1noc2nc(-c3cc(Br)ccc3F)nc(Nc3ccncc3)c12 [Compound 6] | 0.27 µM
CCc1noc2nc(-c3cccc(Cl)c3)nc(Nc3ccncc3)c12 [Compound 7] | 5.07 µM
Cc1noc2nc(-c3cc(Cl)ccc3F)nc(Nc3ccncc3)c12 [Compound 8] | 0.267 µM
Cc1noc2nc(-c3cccc(I)c3)nc(Nc3ccncc3)c12 [Compound 10] | 2.44 µM
CCc1noc2nc(-c3cc(Cl)ccc3F)nc(Nc3ccncc3)c12 [Compound 11] | 1.35 µM
Cc1noc2nc(-c3ccccc3F)nc(Nc3ccncc3)c12 [Compound 12] | 1.38 µM
Cc1noc2nc(-c3ccccc3Cl)nc(Nc3ccncc3)c12 [Compound 14] | 12.8 µM
Cc1noc2nc(-c3cccc(Br)c3)nc(Nc3ccncc3)c12 [Compound 15] | 1.02 µM
Cc1noc2nc(-c3ccc(Cl)cc3)nc(Nc3ccncc3)c12 [Compound 17] | 4.65 µM
Cc1cnccc1Nc1nc(-c2cc(Cl)ccc2F)nc2c1CCC2 [Compound 20] | 0.093 µM
NC(=O)c1cnccc1Nc1nc(-c2cc(Cl)ccc2F)nc2c1CCC2 [Compound 21] | 0.053 µM
Cc1cnccc1Nc1nc(-c2cc(Cl)ccc2F)nc2c1CNCC2 [Compound 22] | 6.27 µM
Cc1cnccc1Nc1nc(-c2cc(Cl)ccc2F)nc2c1CCNC2 [Compound 23] | 1.18 µM
Cc1cnccc1Nc1nc(-c2cc(Cl)ccc2F)nc2c1CN(Cc1ccccc1)CC2 [Compound 30] | 16.1 µM
CCOC(=O)c1cnccc1Nc1nc(-c2cc(Cl)ccc2F)nc2c1CCC2 [Compound 32] | 6.5 µM
Cc1cnccc1Nc1nc(-c2cc(Cl)ccc2F)nc2c1COC2 [Compound 33, [2-(5-Chloro-2-fluorophenyl)-5,7-dihydrofuro[3,4-d]pyrimidin-4-yl]-(3-methyl-pyridin-4-yl)-amine] | 3.1 µM
NC(=O)c1cnccc1Nc1nc(-c2cc(Cl)ccc2F)nc2c1COC2 [Compound 34, 4-[2-(5-Chloro-2-fluoro-phenyl)-5,7-dihydro-furo[3,4-d]pyrimidin-4-ylamino]-nicotinic amide] | 2.25 µM
Fc1ccc(Cl)cc1-c1nc2c(c(Nc3ccncc3C(F)(F)F)n1)CCC2 [Compound 36] | 0.17 µM
O=C(c1cnccc1Nc1nc(-c2cc(Cl)ccc2F)nc2c1CCC2)N1CCCC1 [Compound 37] | 2.24 µM
Cc1cnccc1Nc1nc(-c2cc(Cl)ccc2F)nc2c1CCCC2 [Compound 38, [2-(5-Chloro-2-fluorophenyl)-5,6,7,8-tetrahydroquinazolin-4-yl]-(3-methylpyridin-4-yl)-amine] | 0.252 µM
CNC(=O)c1cnccc1Nc1nc(-c2cc(Cl)ccc2F)nc2c1CCCC2 [Compound 40] | 0.0501 µM
O=C(NC1CC1)c1cnccc1Nc1nc(-c2cc(Cl)ccc2F)nc2c1CCC2 [Compound 41] | 1.35 µM

Compound | IC50
O=C(NCC1CC1)c1cnccc1Nc1nc(-c2cc(Cl)ccc2F)nc2c1CCC2 [Compound 42] | 1.33 µM
Cc1cnccc1Nc1nc(-c2cc(Cl)ccc2F)nc2c1C(C)CC2 (centres unmarked) [Compound 43, [2-(5-Chloro-2-fluorophenyl)-5-methyl-6,7-dihydro-5H-cyclopentapyrimidin-4-yl]-(3-methyl-pyridin-4-yl)-amine] | 0.104 µM
CNC(=O)c1cnccc1Nc1nc(-c2cc(Cl)ccc2F)nc2c1OCC2 [Compound 44, 4-[2-(5-Chloro-2-fluorophenyl)-6,7-dihydrofuro[3,2-d]pyrimidin-4-ylamino]-N-methyl nicotinamide] | 0.148 µM
O=C(NC1CC1)c1cnccc1Nc1nc(-c2cc(Cl)ccc2F)nc2c1CCCC2 [Compound 45, 4-[2-(5-Chloro-2-fluorophenyl)-5,6,7,8-tetrahydroquinazolin-4-ylamino]-N-cyclopropyl nicotinamide] | 0.683 µM
CC1CCc2nc(-c3cc(Cl)ccc3F)nc(Nc3ccncc3C(N)=O)c21 (centres unmarked) [Compound 46] | 0.013 µM
CNC(=O)c1cnccc1Nc1nc(-c2cc(Cl)ccc2F)nc2c1C(C)CC2 (centres unmarked) [Compound 47, 4-[2-(5-Chloro-2-fluorophenyl)-5-methyl-6,7-dihydro-5H-cyclopentapyrimidin-4-ylamino]-N-methyl-nicotinamide] | 0.0145 µM
CCOC(=O)c1cnccc1Nc1nc(-c2cc(Cl)ccc2F)nc2c1C(C)CC2 (centres unmarked) [Compound 48, 4-[2-(5-Chloro-2-fluoro-phenyl)-5-methyl-6,7-dihydro-5H-cyclopentapyrimidin-4-ylamino]-nicotinic acid ethyl ester] | 0.262 µM
CC1CCc2nc(-c3cc(Cl)ccc3F)nc(Nc3ccncc3C(=O)O)c21 (centres unmarked) [Compound 49, 4-[2-(5-Chloro-2-fluorophenyl)-5-methyl-6,7-dihydro-5H-cyclopentapyrimidin-4-ylamino]-nicotinic acid] | 0.0853 µM
O=C(O)c1cnccc1Nc1nc(-c2cc(Cl)ccc2F)nc2c1CCCC2 [Compound 50, 4-[2-(5-Chloro-2-fluorophenyl)-5,6,7,8-tetrahydroquinazolin-4-ylamino]-nicotinic acid] | 4.08 µM
C[C@H](O)CNC(=O)c1cnccc1Nc1nc(-c2cc(Cl)ccc2F)nc2c1CCC2 [Compound 52] | 0.238 µM
C[C@H](O)CNC(=O)c1cnccc1Nc1nc(-c2cc(Cl)ccc2F)nc2c1CCC2 [Compound 53] | 0.417 µM
O=C(NO)c1cnccc1Nc1nc(-c2cc(Cl)ccc2F)nc2c1CCC2 [Compound 54] | 0.486 µM
C[C@@H](O)CNC(=O)c1cnccc1Nc1nc(-c2cc(Cl)ccc2F)nc2c1CCC2 [Compound 55] | 0.639 µM
CNCCNC(=O)c1cnccc1Nc1nc(-c2cc(Cl)ccc2F)nc2c1CCC2 [Compound 56] | 0.365 µM
C[C@H](O)CNC(=O)c1cnccc1Nc1nc(-c2cc(Cl)ccc2F)nc2c1CCCC2 [Compound 57] | 0.436 µM
NNC(=O)c1cnccc1Nc1nc(-c2cc(Cl)ccc2F)nc2c1CCC2 [Compound 58] | 0.0626 µM
CCN(CC)CCNC(=O)c1cnccc1Nc1nc(-c2cc(Cl)ccc2F)nc2c1CCCC2 [Compound 59] | 0.0779 µM
Cc1cnccc1Nc1nc(-c2cc(Cl)ccc2F)nc2c1CC(C)(C)C2 [Compound 60, [2-(5-Chloro-2-fluoro-phenyl)-6,6-dimethyl-6.7-dihydro-5H-cyclopentapyrimidin-4-yl]-(3-methyl-pyridin-4-yl)-amine] | 2.42 µM
CC1(C)Cc2nc(-c3cc(Cl)ccc3F)nc(Nc3ccncc3C(F)(F)F)c2C1 [Compound 61] | 6.25 µM
CC1(C)Cc2nc(-c3cc(Cl)ccc3F)nc(Nc3ccncc3C(N)=O)c2C1 [Compound 62, 4-[2-(5-Chloro-2-fluoro-phenyl)-6,6-dimethyl-6,7-dihydro-5H-cyclopentapyrimidin-4-ylamino]-nicotinamide] | 0.205 µM
CNC(=O)c1cnccc1Nc1nc(-c2cc(Cl)ccc2F)nc2c1CC(C)(C)C2 [Compound 63] | 0.102 µM
C[C@@H](O)CNC(=O)c1cnccc1Nc1nc(-c2cc(Cl)ccc2F)nc2c1CC(C)(C)C2 [Compound 64] | 1.81 µM
CC1(C)Cc2nc(-c3cc(Cl)ccc3F)nc(Nc3ccncc3C(=O)NC[C@H](O)CO)c2C1 [Compound 65] | 2.79 µM
